Reference: patent US20110160256A1, “INHIBITORS OF AKT ACTIVITY” (priority 2008, published 2011)
Where “and” joins values, the source holds several entries; their conditions need not be identical. Equal entries are not always repeated.

Molecular target: T1, full length AKT1 (Homo sapiens, UniProt P31749)
T1 construct: Full-length human AKT1 gene was amplified by PCR; His6 tag from the pFastBacHTb vector (own knowledge: N-terminal His6, spacer and TEV site; supported by the nickel purification) (N); made in house; host or cells: baculovirus-infected insect cells (virus produced in Sf9; T. ni cells infected; purification text says sf9 cells)
T1 sequence (P31749 whole entry): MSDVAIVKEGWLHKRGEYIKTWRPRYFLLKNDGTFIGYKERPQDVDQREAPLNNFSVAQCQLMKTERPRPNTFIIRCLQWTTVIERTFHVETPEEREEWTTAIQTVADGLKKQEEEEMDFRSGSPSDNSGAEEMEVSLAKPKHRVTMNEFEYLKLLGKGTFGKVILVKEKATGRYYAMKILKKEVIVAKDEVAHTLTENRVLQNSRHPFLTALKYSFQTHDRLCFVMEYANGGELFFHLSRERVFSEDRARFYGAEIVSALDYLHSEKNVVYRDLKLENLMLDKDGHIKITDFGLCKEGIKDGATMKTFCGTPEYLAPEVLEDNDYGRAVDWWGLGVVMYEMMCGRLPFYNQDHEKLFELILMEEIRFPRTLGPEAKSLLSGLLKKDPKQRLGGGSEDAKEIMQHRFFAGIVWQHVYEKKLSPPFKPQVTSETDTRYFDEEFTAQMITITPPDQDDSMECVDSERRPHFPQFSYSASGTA
Experiment: Full-length AKT enzyme assay (substrate phosphorylation, SPA)
Format: biochemical
Conditions: in at least one experimental run; 10 nM activated AKT enzyme, 4 uM ATP; pIC50 = -log(IC50), IC50 in molar units; read-out: pIC50 value against full length AKT1 (converted)
Text: Cloning of Full-Length Human (FL) AKT1:
Full-length human AKT1 gene was amplified by PCR from a plasmid containing myristylated-AKT1-ER (gift from Robert T. Abraham, Duke University under MTA, described in Klippel et al. in Molecular and Cellular Biology 1998 Volume 18 p. 5699) using the 5′ primer: SEQ. ID NO: 2 5′ […] 3′ and the 3′ primer: SEQ. ID NO: 3 […] 3′. The 5′ primer included a BamHI site and the 3′ primer included an XhoI site for cloning purposes. The resultant PCR product was subcloned in pcDNA3 as a BamHI/XhoI fragment. A mutation in the sequence (TGC) coding for a Cysteine^25 was converted to the wild-type AKT1 sequence (CGC) coding for an Arginine^25 by site-directed mutagenesis using the QuikChange® Site Directed Mutagenesis Kit (Stratagene). The AKT1 mutagenic primer: SEQ. ID NO: 4 5′ […] and selection primer: SEQ. […] For expression/purification purposes, AKT1 was isolated as a BamHI/XhoI fragment and cloned into the BamHI/XhoI sites of pFastbacHTb (Invitrogen).
Expression of FL Human AKT1:
Expression was done using the BAC-to-BAC Baculovirus Expression System from Invitrogen (catalog #10359-016). […]
Compounds of the present invention were tested for AKT 1, 2, and 3 protein serine kinase inhibitory activity in substrate phosphorylation assays. […] Substrate phosphorylation was detected by the following procedure. […]

| IC50 | Compound |
| --- | --- |
| ≤ 501 nM and 501 nM | Cn1nccc1-c1csc(C(=O)N[C@H](CN)Cc2cccc(F)c2)n1 [Example 1, N-{(1S)-2-amino-1-[(3-fluorophenyl)methyl]ethyl}-4-(1-methyl-1H-pyrazol-5-yl)-1,3-thiazole-2-carboxamide] |
| ≤ 501 nM | Cn1nccc1-c1csc(C(=O)NC(CN)Cc2ccccc2)n1 (centres unmarked) [Example 3, N-[2-amino-1-(phenylmethyl)ethyl]-4-(1-methyl-1H-pyrazol-5-yl)-1,3-thiazole-2-carboxamide] |
